Measured values taken from patent US11739064B2, “HDAC inhibitors and therapeutic methods using the same” (THE BOARD OF TRUSTEES OF THE UNIVERSITY OF ILLINOIS, priority 2015, dated 2023).
pIC50: −log10 of the molar value.

Legend:
HDAC2 = HDAC2 (Homo sapiens, UniProt Q92769); assay: In vitro HDAC inhibition assay, HDAC2; format: biochemical
HDAC3/NcoR2 complex = HDAC3/NcoR2 complex (Homo sapiens, UniProt O15379); assay: In vitro HDAC inhibition assay, HDAC3; format: biochemical
HDAC10 = target: T1, HDAC10 (Homo sapiens, UniProt Q969S8); assay: In vitro HDAC inhibition assay, HDAC10; format: biochemical
T1 sequence (Q969S8 1-669): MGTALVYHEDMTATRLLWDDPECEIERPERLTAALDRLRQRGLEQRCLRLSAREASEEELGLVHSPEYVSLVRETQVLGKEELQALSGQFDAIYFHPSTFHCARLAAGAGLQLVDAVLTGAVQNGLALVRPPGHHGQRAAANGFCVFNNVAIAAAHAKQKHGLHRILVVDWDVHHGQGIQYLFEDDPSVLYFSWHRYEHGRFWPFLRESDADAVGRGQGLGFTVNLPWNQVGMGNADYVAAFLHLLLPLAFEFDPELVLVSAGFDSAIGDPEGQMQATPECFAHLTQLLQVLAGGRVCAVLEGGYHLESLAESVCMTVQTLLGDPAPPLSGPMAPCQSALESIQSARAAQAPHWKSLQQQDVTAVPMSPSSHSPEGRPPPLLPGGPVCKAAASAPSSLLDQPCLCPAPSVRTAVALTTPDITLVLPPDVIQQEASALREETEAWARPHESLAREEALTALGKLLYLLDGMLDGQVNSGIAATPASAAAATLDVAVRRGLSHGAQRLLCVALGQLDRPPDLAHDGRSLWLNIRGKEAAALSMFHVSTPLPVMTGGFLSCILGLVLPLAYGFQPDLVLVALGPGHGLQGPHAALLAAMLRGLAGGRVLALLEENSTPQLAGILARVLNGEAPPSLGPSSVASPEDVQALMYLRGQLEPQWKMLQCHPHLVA

HDAC4 = HDAC4 (Homo sapiens, UniProt P56524); assay: HDAC isoform inhibition, HDAC4; format: biochemical
HDAC8 = target: T2, HDAC8 (Homo sapiens, UniProt Q9BY41); assay: HDAC isoform inhibition, HDAC8; format: biochemical
T2 sequence (Q9BY41 1-377): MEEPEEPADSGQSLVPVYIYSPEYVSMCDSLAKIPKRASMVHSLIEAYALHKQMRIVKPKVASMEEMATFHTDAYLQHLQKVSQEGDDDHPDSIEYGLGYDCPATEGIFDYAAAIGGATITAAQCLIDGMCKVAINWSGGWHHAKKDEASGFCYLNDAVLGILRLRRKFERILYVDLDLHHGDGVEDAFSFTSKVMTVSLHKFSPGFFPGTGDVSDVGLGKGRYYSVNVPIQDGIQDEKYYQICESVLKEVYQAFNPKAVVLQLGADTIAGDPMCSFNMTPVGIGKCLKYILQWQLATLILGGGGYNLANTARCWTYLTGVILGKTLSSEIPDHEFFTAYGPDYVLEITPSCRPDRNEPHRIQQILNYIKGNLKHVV

BxPC3 = assay: In vitro growth inhibition (GI), MTS cell proliferation assay (Table 5), BxPC3; format: cell-based; conditions: Homo sapiens, BXPC-3, 72 hours post-treatment
PANC1 cells = assay: Scratch-wound cell migration assay; format: cell-based; set-up: key to Inhibition of cell migration, 24 h / Inhibition of cell migration, 48 h: Level of inhibition (high to low): +++, ++ or +; Level of inhibition (high to low): +++, ++ or +; Level of inhibition (high to low): +++, ++ or +; no inhibition: −
Experimental: FIG. 2 contains photographs of PANC1 cells treated with present compounds 9 and 6 taken 24 and 48 hours (post wounding) after a scratch was made through a confluent layer of cells; and
PANC1 Cell migration and effect on T and NK Cells. The effect of HDAC6 inhibition on cell migration and cellular cytotoxicity was evaluated. […] Thus, these HDAC6-selective inhibitors could function well to block metastasis. However, in contrast to the effect observed on cell migration, none of the compounds tested affected CD8+ T cell or natural killer (NK) cell-mediated cytotoxicity, despite the ability of the compounds to substantially increase the levels of acetyl-tubulin in these cell lines.

Human HDAC1 = Human HDAC1 (Homo sapiens, UniProt Q13547); assay: In vitro HDAC inhibition assay, HDAC1; conditions: read-out: HDAC isoform IC50, HDAC1; NI = No inhibition at a concentration of 50 pM (footnote b)
Sequence of Human HDAC1 (Q13547 whole entry, canonical isoform): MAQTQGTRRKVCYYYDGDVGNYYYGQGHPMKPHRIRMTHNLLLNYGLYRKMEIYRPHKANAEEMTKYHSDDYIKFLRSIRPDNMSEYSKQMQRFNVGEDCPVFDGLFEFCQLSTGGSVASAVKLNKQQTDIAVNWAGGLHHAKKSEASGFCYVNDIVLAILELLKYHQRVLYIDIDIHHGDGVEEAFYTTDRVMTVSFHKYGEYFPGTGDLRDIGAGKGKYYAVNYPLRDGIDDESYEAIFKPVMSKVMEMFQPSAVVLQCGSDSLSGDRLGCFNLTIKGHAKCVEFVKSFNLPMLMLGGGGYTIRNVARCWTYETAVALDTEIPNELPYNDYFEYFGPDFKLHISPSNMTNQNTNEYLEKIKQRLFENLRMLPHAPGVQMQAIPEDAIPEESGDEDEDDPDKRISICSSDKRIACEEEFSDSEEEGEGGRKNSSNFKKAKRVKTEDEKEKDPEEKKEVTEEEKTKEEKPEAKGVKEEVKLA

Sequence of HDAC3/NcoR2 complex (O15379 whole entry): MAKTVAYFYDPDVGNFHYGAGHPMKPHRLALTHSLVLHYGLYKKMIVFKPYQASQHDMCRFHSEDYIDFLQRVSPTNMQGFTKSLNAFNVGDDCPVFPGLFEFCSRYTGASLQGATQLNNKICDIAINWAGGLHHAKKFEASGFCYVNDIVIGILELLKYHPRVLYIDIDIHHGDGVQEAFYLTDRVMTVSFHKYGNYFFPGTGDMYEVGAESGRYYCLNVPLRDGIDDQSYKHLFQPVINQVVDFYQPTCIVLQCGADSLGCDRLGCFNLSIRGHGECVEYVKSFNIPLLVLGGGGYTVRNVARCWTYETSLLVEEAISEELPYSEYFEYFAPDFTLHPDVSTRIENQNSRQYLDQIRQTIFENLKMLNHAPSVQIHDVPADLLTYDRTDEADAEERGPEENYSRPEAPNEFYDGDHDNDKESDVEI
Sequence of HDAC3/NcoR2 complex (Q9Y618 395-489 partner limits assumed): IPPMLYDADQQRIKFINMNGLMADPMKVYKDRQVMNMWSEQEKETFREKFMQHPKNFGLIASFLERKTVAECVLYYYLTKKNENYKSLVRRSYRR
Sequence of HDAC4 (P56524 whole entry, canonical isoform): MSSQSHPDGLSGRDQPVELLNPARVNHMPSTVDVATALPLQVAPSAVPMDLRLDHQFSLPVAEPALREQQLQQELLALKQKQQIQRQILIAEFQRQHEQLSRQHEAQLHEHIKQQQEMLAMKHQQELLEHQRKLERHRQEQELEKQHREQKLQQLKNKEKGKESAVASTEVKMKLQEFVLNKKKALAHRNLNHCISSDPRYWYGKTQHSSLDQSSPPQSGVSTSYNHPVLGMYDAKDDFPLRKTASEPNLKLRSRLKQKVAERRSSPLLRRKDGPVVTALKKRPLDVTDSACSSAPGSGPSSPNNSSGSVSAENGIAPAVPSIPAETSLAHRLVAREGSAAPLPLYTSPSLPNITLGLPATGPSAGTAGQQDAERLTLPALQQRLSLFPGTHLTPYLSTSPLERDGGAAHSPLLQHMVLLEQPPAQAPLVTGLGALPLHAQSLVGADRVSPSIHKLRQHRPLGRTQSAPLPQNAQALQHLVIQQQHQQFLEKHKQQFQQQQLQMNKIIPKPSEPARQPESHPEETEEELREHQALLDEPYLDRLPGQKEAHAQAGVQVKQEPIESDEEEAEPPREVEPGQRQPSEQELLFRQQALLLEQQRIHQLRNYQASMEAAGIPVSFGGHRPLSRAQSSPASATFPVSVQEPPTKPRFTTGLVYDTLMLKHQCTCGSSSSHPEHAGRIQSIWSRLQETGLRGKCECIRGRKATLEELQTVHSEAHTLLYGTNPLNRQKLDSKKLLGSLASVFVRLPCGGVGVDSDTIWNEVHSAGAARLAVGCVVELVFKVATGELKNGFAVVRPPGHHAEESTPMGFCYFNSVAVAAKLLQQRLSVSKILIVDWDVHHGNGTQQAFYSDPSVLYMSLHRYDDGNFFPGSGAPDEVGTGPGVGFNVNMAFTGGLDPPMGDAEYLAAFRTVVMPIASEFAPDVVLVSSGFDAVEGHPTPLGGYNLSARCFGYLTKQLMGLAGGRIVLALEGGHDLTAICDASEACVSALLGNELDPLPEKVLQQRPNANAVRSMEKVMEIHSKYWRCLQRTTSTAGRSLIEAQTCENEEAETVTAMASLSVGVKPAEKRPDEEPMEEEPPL
Sequence of HDAC2 (Q92769 whole entry): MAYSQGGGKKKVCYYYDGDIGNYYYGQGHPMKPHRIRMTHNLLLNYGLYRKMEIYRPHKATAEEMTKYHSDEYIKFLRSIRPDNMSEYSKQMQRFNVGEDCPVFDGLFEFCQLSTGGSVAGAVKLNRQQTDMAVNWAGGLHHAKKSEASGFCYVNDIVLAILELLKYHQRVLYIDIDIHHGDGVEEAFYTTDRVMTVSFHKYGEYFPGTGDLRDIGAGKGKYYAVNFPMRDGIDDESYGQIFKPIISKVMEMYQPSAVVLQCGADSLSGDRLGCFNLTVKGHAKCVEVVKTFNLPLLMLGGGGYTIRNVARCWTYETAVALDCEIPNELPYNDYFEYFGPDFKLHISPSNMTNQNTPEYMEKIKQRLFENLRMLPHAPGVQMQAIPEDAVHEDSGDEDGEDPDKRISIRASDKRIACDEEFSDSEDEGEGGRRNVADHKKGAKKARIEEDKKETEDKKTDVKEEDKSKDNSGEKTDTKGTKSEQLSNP

Selectivity for HDAC6 (fold) over HDAC2 (HDAC2): 20500 fold
pIC50 (HDAC2; NI = No inhibition at a concentration of 50 pM (footnote b), read-out: HDAC isoform IC50, HDAC2): 3.91
Selectivity for HDAC6 (fold) over HDAC3 (HDAC3/NcoR2 complex): 3800 fold
pIC50 (HDAC3/NcoR2 complex; NI = No inhibition at a concentration of 50 pM (footnote b), read-out: HDAC isoform IC50, HDAC3): 4.64
Selectivity for HDAC6 (fold) over HDAC10 (HDAC10): >16000 fold
pIC50 (HDAC10; NI = No inhibition at a concentration of 50 pM (footnote b), read-out: HDAC isoform IC50, HDAC10): < 4.00
pIC50 (HDAC4): 3.89
Selectivity for HDAC6 (fold) over HDAC4 (HDAC4): 21600 fold
pIC50 (HDAC8): 6.09
Selectivity for HDAC6 (fold) over HDAC8 (HDAC8): 135 fold
GI50 (BxPC3): 29 µM
pIC50 (Human HDAC1): 4.77
SMILES: CC(C)(C)OC(=O)Nc1ccc(-c2cc(C(=O)NCCc3cc(C(=O)NO)no3)no2)cc1 [Compound 6, (4-{3-[2-(3-Hydroxycarbamoyl-isoxazol-5-yl)-ethylcarbamoyl]-isoxazol-5-yl}-phenyl)-carbamic acid tert-butyl ester]
Inhibition of cell migration, 24 h (PANC1 cells; PANC1, 24 h post wounding): +
Inhibition of cell migration, 48 h (PANC1 cells; PANC1, 48 h post wounding): −
Effect on PANC1 cell migration (PANC1 cells; compared to diluent-treated control cells): partial effect
